Source: ChEMBL document CHEMBL1201862, “PubChem BioAssay data set” (2004)
The source made the active and inactive calls.

Experiments:
[1] = test system: Streptococcus sp. 'group A'; experiment: growth inhibition of control SK(-) GAS strain, dose response, counter-screen for streptokinase expression inhibitor project, luminescence, kanamycin, BacTiterGlo, confirmation (AID 1900); format: functional, organism-based
[2] = molecular target: T1, Heat shock factor protein 1 (Mus musculus, UniProt P38532); experiment: HSF1 potentiators in luciferase reporter cells, confirmation, cell-based, NIH3T3, luminescence, dose retest (AID 435004); format: functional;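 also: stress induced by proteasome inhibitor MG132 added 30 min after compound; luciferase reporter driven by HSF1 response element in NIH3T3 cells; actives raise luminescence as potentiators of the MG132 stress response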
T1 sequence (P38532 whole entry): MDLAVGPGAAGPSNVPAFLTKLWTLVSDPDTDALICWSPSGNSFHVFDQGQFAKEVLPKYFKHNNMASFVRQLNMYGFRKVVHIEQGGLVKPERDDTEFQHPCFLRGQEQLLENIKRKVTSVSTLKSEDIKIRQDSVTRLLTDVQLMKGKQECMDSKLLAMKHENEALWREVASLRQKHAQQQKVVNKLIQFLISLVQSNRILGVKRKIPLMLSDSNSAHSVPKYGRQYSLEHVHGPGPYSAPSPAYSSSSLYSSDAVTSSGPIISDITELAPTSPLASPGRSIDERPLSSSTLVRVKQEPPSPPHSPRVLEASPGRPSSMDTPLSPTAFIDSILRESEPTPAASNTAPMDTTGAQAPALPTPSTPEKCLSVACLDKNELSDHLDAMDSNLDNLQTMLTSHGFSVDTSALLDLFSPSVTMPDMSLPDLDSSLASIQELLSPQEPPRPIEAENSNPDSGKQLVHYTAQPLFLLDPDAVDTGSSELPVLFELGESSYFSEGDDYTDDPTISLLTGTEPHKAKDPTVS

[3] = Fluorescence-based cell-based high throughput dose response assay for inhibitors of the interaction of nucleotide-binding oligomerization domain containing 2 (NOD2) and the receptor-interacting serine-threonine kinase 2 (RIPK2).; format: functional; conditions: Homo sapiens
[4] = molecular target: Beta Lactamase (Pseudomonas aeruginosa, UniProt Q932Y6); experiment: beta-lactamase reporter inhibitor potency, dose response, artefact control for NOD2-RIPK2 interaction inhibitor project, BLA reporter cells, FRET fluorescence (AID 651552); format: functional, cell-based
[5] = molecular target: T2, Heat shock protein HSP 90-alpha (Homo sapiens, UniProt P07900); experiment: Luminescence-based dose response biochemical high throughput screening assay for inhibitors of the Heat Shock Protein 90 (HSP90). [Related pubchem assays: 1831 (Summary AID.), 1846 (Confirmation screen.), 1789 (Primary screen.)]
[6] = HeLa cell cytotoxicity, dose response, cytotoxicity control for MgcRacGAP inhibitor project (AID 624300); format: functional
[7] = molecular target: T2, Heat shock protein HSP 90-alpha; format: functional, organism-based
[8] = test system: Streptococcus; experiment: Group A Streptococcus viability loss, dose response, counter-screen for streptokinase expression inhibitor project, luminescence, BacTiterGlo (AID 1915); format: functional, organism-based;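 also: potency for reduction of bacterial viability or growth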
[9] = molecular target: T3, Streptokinase A (Streptococcus pyogenes serotype M1, UniProt P10520); experiment: S. pyogenes streptokinase expression inhibitors, potency, dose response, plasminogen activation absorbance, OD405 (AID 1914); format: functional, Streptococcus pyogenes M1 GAS;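 also: secreted streptokinase activity via plasminogen activation per viability signal from cell pellet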
T3 sequence (P10520 whole entry): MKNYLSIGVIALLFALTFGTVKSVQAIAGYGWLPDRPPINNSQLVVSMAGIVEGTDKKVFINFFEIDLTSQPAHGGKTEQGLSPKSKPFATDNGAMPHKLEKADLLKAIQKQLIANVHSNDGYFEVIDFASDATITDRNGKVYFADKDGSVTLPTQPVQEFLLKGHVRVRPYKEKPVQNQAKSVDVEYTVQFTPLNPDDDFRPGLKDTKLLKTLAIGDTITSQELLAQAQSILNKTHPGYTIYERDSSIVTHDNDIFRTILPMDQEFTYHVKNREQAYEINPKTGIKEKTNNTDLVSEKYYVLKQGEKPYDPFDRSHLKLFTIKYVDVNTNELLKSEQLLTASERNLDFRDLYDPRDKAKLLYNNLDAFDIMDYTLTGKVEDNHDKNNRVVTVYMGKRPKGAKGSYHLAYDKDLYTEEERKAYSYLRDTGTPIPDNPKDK

[10] = molecular target: T4, Rac GTPase-activating protein 1 (Homo sapiens, UniProt Q9H0H5); experiment: MgcRacGAP GTPase-activating activity inhibitors, confirmation, biochemical, ADP Hunter fluorescence, primary and confirmatory (AID 624330); format: functional
T4 sequence (Q9H0H5 whole entry): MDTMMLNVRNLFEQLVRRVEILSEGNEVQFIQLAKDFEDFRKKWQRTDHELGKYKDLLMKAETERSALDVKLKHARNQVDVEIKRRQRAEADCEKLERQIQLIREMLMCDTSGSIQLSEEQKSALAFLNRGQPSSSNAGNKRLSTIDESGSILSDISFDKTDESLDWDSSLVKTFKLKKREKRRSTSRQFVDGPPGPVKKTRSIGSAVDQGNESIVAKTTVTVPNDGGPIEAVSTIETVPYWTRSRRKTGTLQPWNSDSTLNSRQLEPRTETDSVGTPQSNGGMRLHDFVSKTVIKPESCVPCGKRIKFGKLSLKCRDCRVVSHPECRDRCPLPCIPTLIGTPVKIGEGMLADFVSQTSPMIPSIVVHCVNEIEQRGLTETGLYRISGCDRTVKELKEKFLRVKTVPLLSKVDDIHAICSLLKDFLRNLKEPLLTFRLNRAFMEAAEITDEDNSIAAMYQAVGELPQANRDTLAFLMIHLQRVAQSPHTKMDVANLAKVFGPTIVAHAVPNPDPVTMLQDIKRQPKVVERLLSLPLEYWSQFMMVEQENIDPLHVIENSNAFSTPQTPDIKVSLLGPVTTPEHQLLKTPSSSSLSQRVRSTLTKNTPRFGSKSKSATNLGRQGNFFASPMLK

[11] = test system: INS1; experiment: beta cell apoptosis inhibitors, cytokine rescue, dose response, luminescence, retest (AID 449756); format: functional, cell-based; conditions: Rattus norvegicus;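 also: cell death triggered by IL-1 beta plus TNF-alpha plus IFN-gamma mixture; protective hits raise ATP signal compared with cytokine alone wells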
[12] = molecular target: T5, Sentrin-specific protease 1 (Homo sapiens, UniProt Q9P0U3); experiment: Dose response confirmation of small molecule inhibitors of the catalytic domain of the SUMO protease, SENP1 in a FRET assay.; format: functional; conditions: read-out: IC50_Mean
[13] = molecular target: T5, Sentrin-specific protease 1; experiment: potency of human SENP1 inhibitors, dose response, biochemical, kinetic FRET (AID 651697); format: functional; conditions: read-out: IC50_Mean
[14] = molecular target: T6, Endoribonuclease toxin MazF (Escherichia coli K-12, UniProt P0AE70); experiment: MazF toxin RNase activators, dose response, biochemical, fluorescence, single-stranded RNA substrate, uHTS hits (AID 588481); format: functional
T6 sequence (P0AE70 whole entry): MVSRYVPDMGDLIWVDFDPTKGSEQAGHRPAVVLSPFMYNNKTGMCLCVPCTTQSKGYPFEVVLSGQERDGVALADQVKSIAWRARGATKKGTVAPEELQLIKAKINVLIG

[15] = molecular target: Beta-lactamase (Pseudomonas aeruginosa, UniProt Q79MP6);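 also: biochemical dose-response test of metallo-beta-lactamase enzyme inhibition, read out by epi-absorbance; purified recombinant IMP-1 metallo-beta-lactamase with nitrocefin as substrate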
[16] = molecular target: T6, Endoribonuclease toxin MazF; experiment: fluorescent RNA oligo signal without MazF, dose response, counter-screen for MazEF activator project, biochemical, fluorescence, single-stranded RNase substrate (AID 588502); format: functional
[17] = molecular target: Beta-lactamase (Salmonella choleraesuis (strain SC-B67), UniProt Q5J463)
Beta-lactamase (Salmonella choleraesuis (strain SC-B67), UniProt Q5J463), sequence (Q5J463 whole entry): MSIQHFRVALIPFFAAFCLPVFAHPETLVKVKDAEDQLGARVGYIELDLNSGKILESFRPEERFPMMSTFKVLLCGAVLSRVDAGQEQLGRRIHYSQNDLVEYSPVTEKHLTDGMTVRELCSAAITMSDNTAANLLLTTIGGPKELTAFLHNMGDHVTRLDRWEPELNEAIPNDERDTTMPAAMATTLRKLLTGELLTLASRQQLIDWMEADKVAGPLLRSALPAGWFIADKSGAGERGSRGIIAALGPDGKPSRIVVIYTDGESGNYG

T5 sequence (Q9P0U3 whole entry, the tested form may be a part): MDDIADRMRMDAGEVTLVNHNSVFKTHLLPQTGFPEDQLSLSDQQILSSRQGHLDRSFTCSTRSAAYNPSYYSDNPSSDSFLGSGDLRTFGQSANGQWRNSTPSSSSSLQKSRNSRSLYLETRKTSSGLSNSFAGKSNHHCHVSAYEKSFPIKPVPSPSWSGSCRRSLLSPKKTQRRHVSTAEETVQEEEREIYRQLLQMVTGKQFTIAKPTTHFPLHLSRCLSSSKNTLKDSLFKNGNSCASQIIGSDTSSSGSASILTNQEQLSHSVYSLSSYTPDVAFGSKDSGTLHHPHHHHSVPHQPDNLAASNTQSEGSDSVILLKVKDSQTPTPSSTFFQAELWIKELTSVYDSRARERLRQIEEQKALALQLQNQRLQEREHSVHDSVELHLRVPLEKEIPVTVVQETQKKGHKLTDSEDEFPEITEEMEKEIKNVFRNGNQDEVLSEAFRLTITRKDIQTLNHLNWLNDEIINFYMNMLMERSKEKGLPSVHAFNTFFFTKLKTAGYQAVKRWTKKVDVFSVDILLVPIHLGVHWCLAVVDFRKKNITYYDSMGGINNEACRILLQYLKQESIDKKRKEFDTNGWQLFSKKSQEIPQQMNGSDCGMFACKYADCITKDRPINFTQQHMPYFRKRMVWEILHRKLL
Beta-lactamase (Pseudomonas aeruginosa, UniProt Q79MP6), sequence (Q79MP6 whole entry): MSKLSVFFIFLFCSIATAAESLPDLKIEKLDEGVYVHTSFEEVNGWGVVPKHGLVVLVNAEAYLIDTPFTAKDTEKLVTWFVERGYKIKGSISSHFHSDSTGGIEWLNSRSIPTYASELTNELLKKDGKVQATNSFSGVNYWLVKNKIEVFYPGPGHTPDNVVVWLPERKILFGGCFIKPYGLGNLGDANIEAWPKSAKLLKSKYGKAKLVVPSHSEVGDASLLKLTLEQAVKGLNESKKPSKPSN
Beta Lactamase, sequence (Q932Y6 whole entry): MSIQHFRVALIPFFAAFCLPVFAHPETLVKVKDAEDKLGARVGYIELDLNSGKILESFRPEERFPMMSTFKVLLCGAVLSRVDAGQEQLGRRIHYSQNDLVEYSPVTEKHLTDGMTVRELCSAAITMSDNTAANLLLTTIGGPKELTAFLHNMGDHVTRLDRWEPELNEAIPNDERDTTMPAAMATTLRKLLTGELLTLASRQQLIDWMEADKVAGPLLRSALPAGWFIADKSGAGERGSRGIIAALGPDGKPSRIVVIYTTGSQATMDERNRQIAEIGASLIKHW

O=[N+]([O-])/C=C/c1ccc2c(ccn2Cc2ccccc2)c1
inactive: IC50 [4] 30 µM
active: EC50 [1] 2.91 µM | EC50 [2] 5.7 µM | IC50 [3] 1.74 µM | IC50 [5] 2.98 µM | CC50 [6] 42 µM | AC50 [7] 3.42 µM | EC50 [8] 11.6 µM | EC50 [9] 6.15 µM | IC50 [10] 23.3 µM | AC50 [11] 6.82 µM

O=C1C=C(c2cccc(Cl)c2O)C[C@@H](c2ccc3c(c2)OCO3)C1
active: IC50 [12] 0.993 µM | IC50 [13] 1.93 µM

CCOc1cc2c(cc1/C=C/c1noc(C)c1[N+](=O)[O-])OC(C)C2 (configuration not stated)
inactive: EC50 [14] > 99 µM | IC50 [15] > 59.6 µM | EC50 [16] > 99 µM | IC50 [17] > 59.6 µM
